Results reported in ChEMBL document CHEMBL1201862, “PubChem BioAssay data set” (2004).
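1) Cells in 96-well plates. 2) Compound, 48 h, 5 concentrations. 3) Linear interpolation between surrounding doses. 4) Unreached endpoint = highest concentration. GI50 marks 50% less growth.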 The source made the active and inactive calls. No stated cut-off is given here; in the data, active = GI50 up to about 1.1 µM and inactive = higher.

What was measured:
Test in all cases: NCI tumour cell line growth inhibition, 48 h
M19-MEL = test system: M19-MEL
SR = test system: SR
HOP-92 = test system: HOP-92
XF498 = test system: XF498
SF-295 = test system: SF-295
SK-MEL-5 = test system: SK-MEL-5
ACHN = test system: ACHN
LXFL 529 = test system: LXFL 529
KM-20L2 = test system: KM-20L2
SK-OV-3 = test system: SK-OV-3
UO-31 = test system: UO-31
CAKI-1 = test system: CAKI-1
OVCAR-3 = test system: OVCAR-3
CCRF-CEM = test system: CCRF-CEM
Malme-3M = test system: Malme-3M
IGROV-1 = test system: IGROV-1
RXF 631 = test system: RXF 631
MOLT-4 = test system: MOLT-4
SF-268 = test system: SF-268
DLD-1 = test system: DLD-1
KM12 = test system: KM12
SNB-75 = test system: SNB-75
SK-MEL-2 = test system: SK-MEL-2
SN12C = test system: SN12C
HT-29 = test system: HT-29
NCI-H522 = test system: NCI-H522
SNB-78 = test system: SNB-78
SF-539 = test system: SF-539
UACC-257 = test system: UACC-257
RPMI-8226 = test system: RPMI-8226
K562 = test system: K562
HCT-116 = test system: HCT-116
SNB-19 = test system: SNB-19
UACC-62 = test system: UACC-62
M14 = test system: M14
EKVX = test system: EKVX
DMS-273 = test system: DMS-273
786-0 = test system: 786-0
SW-620 = test system: SW-620
HL-60 = test system: HL-60
NCI-H226 = test system: NCI-H226
NCI-H23 = test system: NCI-H23
U-251 = test system: U-251
A549 = test system: A549
SK-MEL-28 = test system: SK-MEL-28
TK-10 = test system: TK-10
LOX IMVI = test system: LOX IMVI
HCT-15 = test system: HCT-15
HOP-62 = test system: HOP-62
NCI-H460 = test system: NCI-H460
A498 = test system: A498
RXF 393 = test system: RXF 393
DMS-114 = test system: DMS-114
OVCAR-8 = test system: OVCAR-8
COLO 205 = test system: COLO 205
HOP-18 = test system: HOP-18

## O=[S@@]1Nc2ccc(Br)cc2S1
M19-MEL
  GI50: 3.98 µM (inactive)
SR
  GI50: 7.14 µM (inactive)
HOP-92
  GI50: > 100 µM (inactive)
XF498
  GI50: > 100 µM (inactive)
SF-295
  GI50: 40 µM (inactive)
SK-MEL-5
  GI50: 12.6 µM (inactive)
ACHN
  GI50: 1.07 µM (active)
LXFL 529
  GI50: 0.282 µM (active)
KM-20L2
  GI50: 0.294 µM (active)
SK-OV-3
  GI50: 22.5 µM (inactive)
UO-31
  GI50: 1.05 µM (active)
CAKI-1
  GI50: 1.15 µM (inactive)
OVCAR-3
  GI50: 31.2 µM (inactive)
CCRF-CEM
  GI50: 1.64 µM (inactive)
Malme-3M
  GI50: 97.3 µM (inactive)
IGROV-1
  GI50: 53 µM (inactive)
RXF 631
  GI50: 3.3 µM (inactive)
MOLT-4
  GI50: 6.47 µM (inactive)
SF-268
  GI50: 2.44 µM (inactive)
DLD-1
  GI50: 6.08 µM (inactive)
KM12
  GI50: 2.48 µM (inactive)
SNB-75
  GI50: > 100 µM (inactive)
SK-MEL-2
  GI50: 4.67 µM (inactive)
SN12C
  GI50: 37.7 µM (inactive)
HT-29
  GI50: 2.13 µM (inactive)
NCI-H522
  GI50: 0.887 µM (active)
SNB-78
  GI50: > 100 µM (inactive)
SF-539
  GI50: 3.94 µM (inactive)
UACC-257
  GI50: > 100 µM (inactive)
RPMI-8226
  GI50: > 100 µM (inactive)
K562
  GI50: 0.766 µM (active)
HCT-116
  GI50: 4.66 µM (inactive)
SNB-19
  GI50: 2.77 µM (inactive)
UACC-62
  GI50: 1.07 µM (active)
M14
  GI50: 1.4 µM (inactive)
EKVX
  GI50: 41.6 µM (inactive)
DMS-273
  GI50: 1.73 µM (inactive)
786-0
  GI50: > 100 µM (inactive)
SW-620
  GI50: 0.74 µM (active)
HL-60
  GI50: 2.22 µM (inactive)
NCI-H226
  GI50: > 100 µM (inactive)
NCI-H23
  GI50: 25.2 µM (inactive)
U-251
  GI50: 5.18 µM (inactive)
A549
  GI50: 4.56 µM (inactive)
SK-MEL-28
  GI50: 4.53 µM (inactive)
TK-10
  GI50: 2.79 µM (inactive)
LOX IMVI
  GI50: 0.437 µM (active)

## Nc1ccn(C2OC(C(O)CO)C(O)C2O)c(=O)n1 (configuration not stated)
HCT-15
  GI50: > 100 µM
HOP-62
  GI50: > 100 µM (inactive)
HOP-92
  GI50: > 100 µM (inactive)
XF498
  GI50: > 100 µM (inactive)
SF-295
  GI50: > 100 µM (inactive)
SK-MEL-5
  GI50: > 100 µM (inactive)
ACHN
  GI50: > 100 µM (inactive)
LXFL 529
  GI50: > 100 µM (inactive)
KM-20L2
  GI50: > 100 µM (inactive)
NCI-H460
  GI50: > 100 µM (inactive)
SK-OV-3
  GI50: > 100 µM (inactive)
UO-31
  GI50: 69.2 µM (inactive)
CCRF-CEM
  GI50: > 100 µM (inactive)
A498
  GI50: > 100 µM (inactive)
RXF 393
  GI50: > 100 µM (inactive)
RXF 631
  GI50: > 100 µM (inactive)
MOLT-4
  GI50: > 100 µM (inactive)
SF-268
  GI50: > 100 µM (inactive)
DLD-1
  GI50: > 100 µM (inactive)
SN12C
  GI50: > 100 µM (inactive)
DMS-114
  GI50: > 100 µM (inactive)
OVCAR-8
  GI50: > 100 µM (inactive)
NCI-H522
  GI50: > 100 µM (inactive)
SF-539
  GI50: > 100 µM (inactive)
COLO 205
  GI50: > 100 µM (inactive)
RPMI-8226
  GI50: > 100 µM (inactive)
K562
  GI50: > 100 µM (inactive)
HCT-116
  GI50: > 100 µM (inactive)
M14
  GI50: > 100 µM (inactive)
EKVX
  GI50: > 100 µM (inactive)
DMS-273
  GI50: > 100 µM (inactive)
SW-620
  GI50: > 100 µM (inactive)
HL-60
  GI50: > 100 µM (inactive)
NCI-H23
  GI50: > 100 µM (inactive)
U-251
  GI50: > 100 µM (inactive)
HOP-18
  GI50: > 100 µM (inactive)
A549
  GI50: > 100 µM (inactive)
SK-MEL-28
  GI50: > 100 µM (inactive)
TK-10
  GI50: > 100 µM (inactive)
LOX IMVI
  GI50: > 100 µM (inactive)
